Molecules are shown by their SMILES. Activity calls are given as the source filed them. The calls are words filed in the database; no cut-off is given here.

Test [1] in a line: Inhibition of trypsin by classical double reciprocal plot.
Test [2] is described as follows: Inhibition of trypsin.
The nature of test [3]: Inhibition of trypsin at 37 degC.
Test [4] is described as follows: Inhibition of chymotrypsin.
Test [5] in a line: Inhibition of trypsin at 42 degC.
Test [6] is described as follows: Inhibition of trypsin by Dixon plot.
A short description of test [7]: Inhibition of trypsin at 32 degC.

Regarding `O=C(O)c1ccc(C(=O)O)c2c1c(C(=O)O)c1cccnc1[n+]2C(=O)O`, the Ki (in general, a measure of affinity in units of concentration, obtained from inhibition or displacement) in test [1] was 105 µM; in test [3], 97.1 µM; in test [5] it was 94 µM; in test [6] it was 97.1 µM; in test [7], 102 µM. Besides, the IC50 (commonly the concentration that gives 50% inhibition) in test [2] was determined as 102 µM. Moreover, in test [4], the outcome was inactive.

(Values after ChEMBL document CHEMBL1155065, “A serine protease inhibitor from hemolymph of green mussel, Perna viridis” (Bioorg Med Chem Lett, 2008).)
